In PMC5218480 (PLoS ONE, 2017):

Test system: MV-4-11 cells
Test: Gene expression microarray analysis (Affymetrix PrimeView) and GSEA
Type: cell-based, human
Design: RFU PODN (11730768_x_at) / Fold change /veh PODN (11730768_x_at) / RFU LINC00158 (11744669_a_at) / Fold change /veh LINC00158 (11744669_a_at) / RFU DUSP10 (11751237_a_at) / Fold change /veh DUSP10 (11751237_a_at) / RFU ID3 (11757404_x_at) / Fold change /veh ID3 (11757404_x_at) / RFU PLEKHG5 (11737974_s_at) / Fold change /veh PLEKHG5 (11737974_s_at) / RFU LRRC4B (11730491_at) / Fold change /veh LRRC4B (11730491_at) / RFU GIMAP4 (11747438_a_at) / Fold change /veh GIMAP4 (11747438_a_at) / RFU KRT8 (11758183_x_at) / Fold change /veh KRT8 (11758183_x_at) / RFU CNN1 (11734310_a_at) / Fold change /veh CNN1 (11734310_a_at) / RFU VPS37D (11726825_at) / Fold change /veh VPS37D (11726825_at) / RFU C10orf10 (11716522_x_at) / Fold change /veh C10orf10 (11716522_x_at) / RFU KIR2DL2 /// KIR2DL4 /// KIR2DL5A /// KIR2DL5B /// KIR2DS1 /// KIR2DS2 /// KIR2DS3 /// KIR2DS4 /// KIR3DL3 /// KIR3DL3 /// KIR3DS1 (11738374_at) / Fold change /veh KIR2DL2 /// KIR2DL4 /// KIR2DL5A /// KIR2DL5B /// KIR2DS1 /// KIR2DS2 /// KIR2DS3 /// KIR2DS4 /// KIR3DL3 /// KIR3DL3 /// KIR3DS1 (11738374_at) / RFU C1QL1 (11718748_at) / Fold change /veh C1QL1 (11718748_at) / RFU TMPRSS4 (11747572_a_at) / Fold change /veh TMPRSS4 (11747572_a_at) / RFU HAMP (11756126_x_at) / Fold change /veh HAMP (11756126_x_at) / RFU RNFT2 (11725882_a_at) / Fold change /veh RNFT2 (11725882_a_at) / RFU NR4A2 (11747474_a_at) / Fold change /veh NR4A2 (11747474_a_at) / RFU ABCC12 (11746883_a_at) / Fold change /veh ABCC12 (11746883_a_at) / RFU TMEM136 (11760407_x_at) / Fold change /veh TMEM136 (11760407_x_at) / RFU CLDN22 /// WWC2 (11732394_at) / Fold change /veh CLDN22 /// WWC2 (11732394_at) / RFU HLA-DPB1 (11760878_x_at) / Fold change /veh HLA-DPB1 (11760878_x_at) / RFU SPINT1 (11716480_a_at) / Fold change /veh SPINT1 (11716480_a_at) / RFU GAP43 (11754022_s_at) / Fold change /veh GAP43 (11754022_s_at) / RFU A4GNT (11735810_at) / Fold change /veh A4GNT (11735810_at) / RFU PRB3 (11715151_x_at) / Fold change /veh PRB3 (11715151_x_at) / RFU TUBB4B (11761932_at) / Fold change /veh TUBB4B (11761932_at) / RFU CAPN14 (11732068_a_at) / Fold change /veh CAPN14 (11732068_a_at) / RFU TMCC2 (11721928_a_at) / Fold change /veh TMCC2 (11721928_a_at) / RFU IRGQ (11745062_a_at) / Fold change /veh IRGQ (11745062_a_at) / RFU FAM174B (11720279_a_at) / Fold change /veh FAM174B (11720279_a_at) / RFU TMPRSS4 (11748680_a_at) / Fold change /veh TMPRSS4 (11748680_a_at) / RFU FAM212B (11763350_a_at) / Fold change /veh FAM212B (11763350_a_at) / RFU PLEKHG5 (11743358_a_at) / Fold change /veh PLEKHG5 (11743358_a_at) / RFU ZSCAN30 (11745921_a_at) / Fold change /veh ZSCAN30 (11745921_a_at) / RFU CMKLR1 (11741424_a_at) / Fold change /veh CMKLR1 (11741424_a_at) / RFU LOC101060620 /// MAPK8IP1 (11723275_at) / Fold change /veh LOC101060620 /// MAPK8IP1 (11723275_at) / RFU SPTSSB (11747773_x_at) / Fold change /veh SPTSSB (11747773_x_at) / RFU PRSS12 (11739890_at) / Fold change /veh PRSS12 (11739890_at) / RFU BIN1 (11741810_x_at) / Fold change /veh BIN1 (11741810_x_at) / RFU WNT11 (11732464_a_at) / Fold change /veh WNT11 (11732464_a_at) / RFU C10orf10 (11716521_a_at) / Fold change /veh C10orf10 (11716521_a_at) / RFU C5orf56 (11738089_at) / Fold change /veh C5orf56 (11738089_at) / RFU CYB561 (11721691_x_at) / Fold change /veh CYB561 (11721691_x_at) / RFU ANKRD19P (11752326_a_at) / Fold change /veh ANKRD19P (11752326_a_at) / RFU OR2T12 /// OR2T33 /// OR2T8 (11738714_s_at) / Fold change /veh OR2T12 /// OR2T33 /// OR2T8 (11738714_s_at) / RFU VCAN (11748164_a_at) / Fold change /veh VCAN (11748164_a_at) / RFU JSRP1 (11732532_at) / Fold change /veh JSRP1 (11732532_at) / RFU KRTAP10-11 (11738290_x_at) / Fold change /veh KRTAP10-11 (11738290_x_at) / RFU MYO3A (11730013_a_at) / Fold change /veh MYO3A (11730013_a_at) / RFU EBF3 (11725865_a_at) / Fold change /veh EBF3 (11725865_a_at) / RFU CAMK2N1 (11719241_x_at) / Fold change /veh CAMK2N1 (11719241_x_at) / RFU C5orf56 (11738088_a_at) / Fold change /veh C5orf56 (11738088_a_at) / RFU OLFML3 (11715873_a_at) / Fold change /veh OLFML3 (11715873_a_at) / RFU LOC100653217 /// NTM (11731650_a_at) / Fold change /veh LOC100653217 /// NTM (11731650_a_at) / RFU MAPK11 (11762145_a_at) / Fold change /veh MAPK11 (11762145_a_at) / RFU FIZ1 (11724087_x_at) / Fold change /veh FIZ1 (11724087_x_at) / RFU OASL (11726364_x_at) / Fold change /veh OASL (11726364_x_at) / RFU SOX15 (11748057_x_at) / Fold change /veh SOX15 (11748057_x_at) / RFU CD79A (11719716_a_at) / Fold change /veh CD79A (11719716_a_at) / RFU HIST1H1D (11736915_at) / Fold change /veh HIST1H1D (11736915_at) / RFU CASKIN2 (11723855_a_at) / Fold change /veh CASKIN2 (11723855_a_at) / RFU LOC730098 (11760151_x_at) / Fold change /veh LOC730098 (11760151_x_at) / RFU OR4N2 (11742367_at) / Fold change /veh OR4N2 (11742367_at) / RFU PRRT2 (11749266_a_at) / Fold change /veh PRRT2 (11749266_a_at) / RFU SNX32 (11753110_a_at) / Fold change /veh SNX32 (11753110_a_at) / RFU CDHR5 (11726645_a_at) / Fold change /veh CDHR5 (11726645_a_at) / RFU RCAN1 (11760418_a_at) / Fold change /veh RCAN1 (11760418_a_at) / RFU FAM167A (11723789_a_at) / Fold change /veh FAM167A (11723789_a_at) / RFU FAM26E (11764081_at) / Fold change /veh FAM26E (11764081_at) / RFU ISYNA1 (11749810_s_at) / Fold change /veh ISYNA1 (11749810_s_at) / RFU ACY1 (11761880_at) / Fold change /veh ACY1 (11761880_at) / RFU 11764098_at / Fold change /veh 11764098_at / RFU SAMD14 (11745864_x_at) / Fold change /veh SAMD14 (11745864_x_at) / RFU NPB (11741838_a_at) / Fold change /veh NPB (11741838_a_at) / RFU TMPRSS6 (11731388_a_at) / Fold change /veh TMPRSS6 (11731388_a_at) / RFU KRTAP10-2 (11738614_at) / Fold change /veh KRTAP10-2 (11738614_at) / RFU ARHGAP8 /// PRR5-ARHGAP8 (11727945_x_at) / Fold change /veh ARHGAP8 /// PRR5-ARHGAP8 (11727945_x_at) / RFU KRTAP5-7 /// NADSYN1 (11734609_at) / Fold change /veh KRTAP5-7 /// NADSYN1 (11734609_at) / RFU RASL12 (11751679_a_at) / Fold change /veh RASL12 (11751679_a_at) / RFU CDKN2B (11736163_a_at) / Fold change /veh CDKN2B (11736163_a_at) / RFU PRF1 (11729649_at) / Fold change /veh PRF1 (11729649_at) / RFU, ZNF638 /// ZNF638-IT1 / Fold change vs veh, ZNF638 /// ZNF638-IT1 / RFU, PANK3 / Fold change vs veh, PANK3 / RFU, SH3YL1 / Fold change vs veh, SH3YL1 / RFU, ZEB2 / Fold change vs veh, ZEB2 / RFU, NRIP1 / Fold change vs veh, NRIP1 / RFU, PTTG1IP / Fold change vs veh, PTTG1IP / RFU, CAPN2 / Fold change vs veh, CAPN2 / RFU, MED14 / Fold change vs veh, MED14 / RFU, SNORA58 / Fold change vs veh, SNORA58 / RFU, C1orf63 / Fold change vs veh, C1orf63 / RFU, LRRFIP1 / Fold change vs veh, LRRFIP1 / RFU, NDUFAF7 / Fold change vs veh, NDUFAF7 / RFU, SLC12A2 / Fold change vs veh, SLC12A2 / RFU, IBTK / Fold change vs veh, IBTK / RFU, ESF1 / Fold change vs veh, ESF1 / Fold change vs veh, TMEM50B / RFU, TAOK1 / Fold change vs veh, TAOK1 / RFU, ACBD3 / Fold change vs veh, ACBD3 / RFU, TMA16 / Fold change vs veh, TMA16 / RFU, RWDD3 / Fold change vs veh, RWDD3 / RFU, BCAT1 / Fold change vs veh, BCAT1 / RFU, EDEM3 / Fold change vs veh, EDEM3 / RFU, TMEM33 / Fold change vs veh, TMEM33 / RFU, WDR75 / Fold change vs veh, WDR75 / RFU, AHCTF1 / Fold change vs veh, AHCTF1 / RFU, TFRC / Fold change vs veh, TFRC / RFU, ZDHHC17 / Fold change vs veh, ZDHHC17 / RFU, NOM1 / Fold change vs veh, NOM1 / RFU, ARL8B / Fold change vs veh, ARL8B / RFU, ZBTB11 / Fold change vs veh, ZBTB11 / RFU, TAMM41 / Fold change vs veh, TAMM41 / RFU, KIAA1704 /// LOC100996395 / Fold change vs veh, KIAA1704 /// LOC100996395 / RFU, ING1 / Fold change vs veh, ING1 / RFU, TRMT61B / Fold change vs veh, TRMT61B / RFU, FUBP3 / Fold change vs veh, FUBP3 / RFU, TP53 / Fold change vs veh, TP53 / RFU, TNKS2 / Fold change vs veh, TNKS2 / RFU, ZFP14 / Fold change vs veh, ZFP14 / RFU, ACTR2 / Fold change vs veh, ACTR2 / RFU, PPP3R1 / Fold change vs veh, PPP3R1 / RFU, PIK3R1 / Fold change vs veh, PIK3R1 / RFU, HNRNPA1 / Fold change vs veh, HNRNPA1 / RFU, RNF170 / Fold change vs veh, RNF170 / RFU, ZNF28 / Fold change vs veh, ZNF28 / RFU, RNGTT / Fold change vs veh, RNGTT / RFU, OGT / Fold change vs veh, OGT / RFU, BRD1 / Fold change vs veh, BRD1 / RFU, MARS / Fold change vs veh, MARS / RFU, ZNF655 / Fold change vs veh, ZNF655 / RFU, FAHD1 / Fold change vs veh, FAHD1 / RFU, BDP1 / Fold change vs veh, BDP1 / RFU, LRRCC1 / Fold change vs veh, LRRCC1 / RFU, ARID1A / Fold change vs veh, ARID1A / RFU, ZNF146 / Fold change vs veh, ZNF146 / RFU, ZNF330 / Fold change vs veh, ZNF330 / RFU, GPN3 / Fold change vs veh, GPN3 / RFU, C9orf123 / Fold change vs veh, C9orf123 / RFU, N4BP2L2 / Fold change vs veh, N4BP2L2 / RFU, ARFIP1 / Fold change vs veh, ARFIP1 / RFU, FAM179B / Fold change vs veh, FAM179B / RFU, BCL10 / Fold change vs veh, BCL10 / RFU, UHRF1BP1L / Fold change vs veh, UHRF1BP1L / RFU, BET1 / Fold change vs veh, BET1 / RFU, CNOT2 / Fold change vs veh, CNOT2 / RFU, ZNF268 / Fold change vs veh, ZNF268 / Fold change vs veh, ZNF507 / RFU, DGCR2 / Fold change vs veh, DGCR2 / RFU, WDSUB1 / Fold change vs veh, WDSUB1 / Fold change vs veh, HSP90B1 /// MIR3652 / RFU, ADSS / Fold change vs veh, ADSS / RFU, GK / Fold change vs veh, GK / RFU, ZNF148 / Fold change vs veh, ZNF148 / RFU, TAF9 / Fold change vs veh, TAF9 / RFU, SLC1A5 / Fold change vs veh, SLC1A5 / RFU, SLMO2 / Fold change vs veh, SLMO2 / RFU, ABCC4 / Fold change vs veh, ABCC4 / RFU, LOC101060439 /// RAP1B / Fold change vs veh, LOC101060439 /// RAP1B / RFU, RFX7 / Fold change vs veh, RFX7 / RFU, GTPBP10 / Fold change vs veh, GTPBP10 / RFU, CNEP1R1 / Fold change vs veh, CNEP1R1 / RFU, BIVM-ERCC5 /// ERCC5 / Fold change vs veh, BIVM-ERCC5 /// ERCC5 / RFU, ILF3 / Fold change vs veh, ILF3 / RFU 11762660_at / Fold change /veh 11762660_at / RFU VCAN (11757783_s_at) / Fold change /veh VCAN (11757783_s_at) / RFU DDX43 (11728927_at) / Fold change /veh DDX43 (11728927_at) / RFU KRT8 (11758188_x_at) / Fold change /veh KRT8 (11758188_x_at) / RFU NKD1 (11759106_at) / Fold change /veh NKD1 (11759106_at) / RFU SRD5A1 (11742802_a_at) / Fold change /veh SRD5A1 (11742802_a_at) / RFU TPSAB1 /// TPSB2 (11721975_s_at) / Fold change /veh TPSAB1 /// TPSB2 (11721975_s_at) / RFU GSTM3 (11746129_a_at) / Fold change /veh GSTM3 (11746129_a_at) / RFU IL23R (11737362_x_at) / Fold change /veh IL23R (11737362_x_at) / RFU TMEM51 (11727254_a_at) / Fold change /veh TMEM51 (11727254_a_at) / RFU PIWIL2 (11732686_x_at) / Fold change /veh PIWIL2 (11732686_x_at) / RFU ORM1 (11744905_x_at) / Fold change /veh ORM1 (11744905_x_at) / RFU CCDC152 (11743942_at) / Fold change /veh CCDC152 (11743942_at) / RFU ECM1 (11717891_a_at) / Fold change /veh ECM1 (11717891_a_at) / RFU IL23R (11748794_a_at) / Fold change /veh IL23R (11748794_a_at) / RFU TNFAIP8L3 (11732012_x_at) / Fold change /veh TNFAIP8L3 (11732012_x_at) / RFU MBOAT4 (11741988_at) / Fold change /veh MBOAT4 (11741988_at) / RFU 11764193_at / Fold change /veh 11764193_at / RFU TMEM53 (11763286_at) / Fold change /veh TMEM53 (11763286_at) / RFU MAGEB2 (11727129_at) / Fold change /veh MAGEB2 (11727129_at) / RFU TMEM200A (11744735_a_at) / Fold change /veh TMEM200A (11744735_a_at) / RFU CCDC152 (11751479_a_at) / Fold change /veh CCDC152 (11751479_a_at) / RFU FAM211A (11726209_a_at) / Fold change /veh FAM211A (11726209_a_at) / RFU RGS16 (11746705_a_at) / Fold change /veh RGS16 (11746705_a_at) / RFU VCAN (11755009_s_at) / Fold change /veh VCAN (11755009_s_at) / RFU RHOB (11743442_s_at) / Fold change /veh RHOB (11743442_s_at) / RFU RGS16 (11720943_a_at) / Fold change /veh RGS16 (11720943_a_at) / RFU RGS16 (11720944_at) / Fold change /veh RGS16 (11720944_at) / RFU, VPS4B / Fold change vs veh, VPS4B / RFU, CREB1 / Fold change vs veh, CREB1 / RFU, DNAJC13 / Fold change vs veh, DNAJC13 / RFU, GNAQ / Fold change vs veh, GNAQ / RFU, CDK5R1 / Fold change vs veh, CDK5R1 / RFU, ZRANB3 / Fold change vs veh, ZRANB3 / RFU, CUL4A / Fold change vs veh, CUL4A / RFU, CCNY / Fold change vs veh, CCNY / RFU, UFL1 / Fold change vs veh, UFL1 / RFU, COG3 / Fold change vs veh, COG3 / RFU, DIAPH2 / Fold change vs veh, DIAPH2 / RFU, SKA2 / Fold change vs veh, SKA2 / RFU, AFF3 / Fold change vs veh, AFF3 / RFU, LMF1 / Fold change vs veh, LMF1 / RFU, IPO11 / Fold change vs veh, IPO11 / RFU, DFFB / Fold change vs veh, DFFB / RFU, FOXP1 / Fold change vs veh, FOXP1 / RFU, CARD8 / Fold change vs veh, CARD8 / RFU, STRN3 / Fold change vs veh, STRN3 / RFU, ADK / Fold change vs veh, ADK / RFU, RASSF2 / Fold change vs veh, RASSF2 / RFU, WIPF1 / Fold change vs veh, WIPF1 / RFU, LARP1B / Fold change vs veh, LARP1B / RFU, RASA1 / Fold change vs veh, RASA1 / RFU, RB1 / Fold change vs veh, RB1 / RFU, PPFIA1 / Fold change vs veh, PPFIA1 / RFU, MAT2A / Fold change vs veh, MAT2A / RFU, CCT5 / Fold change vs veh, CCT5 / RFU, WDR92 / Fold change vs veh, WDR92 / RFU, CUX1 / Fold change vs veh, CUX1 / RFU, TTC7A / Fold change vs veh, TTC7A / RFU, TMEM135 / Fold change vs veh, TMEM135 / RFU, DEPTOR / Fold change vs veh, DEPTOR / RFU, CPM / Fold change vs veh, CPM / RFU, DNAJB6 / Fold change vs veh, DNAJB6 / RFU, CACNA2D3 / Fold change vs veh, CACNA2D3 / RFU, DTX4 / Fold change vs veh, DTX4 / RFU, TFCP2 / Fold change vs veh, TFCP2 / RFU, GMCL1 /// GMCL1P1 / Fold change vs veh, GMCL1 /// GMCL1P1 / RFU, AEBP2 / Fold change vs veh, AEBP2 / RFU, SNHG1 /// SNORD22 /// SNORD25 /// SNORD26 /// SNORD27 /// SNORD28 /// SNORD29 /// SNORD31 / Fold change vs veh, SNHG1 /// SNORD22 /// SNORD25 /// SNORD26 /// SNORD27 /// SNORD28 /// SNORD29 /// SNORD31 / Fold change (Aza/veh), C12orf56 (ProbeSet 11735607_a_at) / Fold change (ACY-1035/veh), C12orf56 (ProbeSet 11735607_a_at) / Fold change (Aza/veh), FGFR1OP (ProbeSet 11751329_s_at) / Fold change (ACY-1035/veh), FGFR1OP (ProbeSet 11751329_s_at) / Fold change (Aza/veh), VPS36 (ProbeSet 11739960_a_at) / Fold change (ACY-1035/veh), VPS36 (ProbeSet 11739960_a_at) / RFU SYPL1 (11715823_x_at) / Fold change /veh SYPL1 (11715823_x_at) / RFU IGFBP7 (11715501_s_at) / Fold change /veh IGFBP7 (11715501_s_at) / RFU REEP3 (11722064_at) / Fold change /veh REEP3 (11722064_at) / RFU IGLL1 (11728026_x_at) / Fold change /veh IGLL1 (11728026_x_at): dose or concentration left out as unconfirmed
Details: MV-4-11 cells, 48 hours

Question: Which “RFU PLEKHG5 (11743358_a_at)” value does the source give for `Nc1ccc(-c2cccs2)cc1NC(=O)c1ccc2c(c1)cc(C1CC1)n2CCN1CCOCC1` [ACY-1035] here?
Answer: 36.52 RFU
